Test system: soluble epoxide hydrolase (sEH)
Assay: Fluorescent assay for soluble epoxide hydrolase (CMNPC substrate), percent inhibition at the recited concentration
Assay type: biochemical
Text: Fluorescent Assay for Mouse and Human Soluble Epoxide Hydrolase Recombinant mouse sEH (MsEH) and human sEH (HsEH) were produced in a baculovirus expression system as previously reported. Grant et al., J. Biol. Chem., 268:17628-17633 (1993); Beetham et al., Arch. Biochem. Biophys., 305:197-201 (1993). The expressed proteins were purified from cell lysate by affinity chromatography. Wixtrom et al., Anal. Biochem., 169:71-80 (1988). Protein concentration was quantified using the Pierce BCA assay using bovine serum albumin as the calibrating standard. The preparations were at least 97% pure as judged by SDS-PAGE and scanning densitometry. They contained no detectable esterase or glutathione transferase activity which can interfere with the assay. The assay was also evaluated with similar results in crude cell lysates or homogenate of tissues. The IC50s for each inhibitor were determined according to the following procedure: […] Jones P. D. et al.; Analytical Biochemistry 2005; 343: pp. 66-75) Bis/Tris HCl 25 mM pH 7.0 containing 0.1 mg/mL of BSA (buffer […] at 0.25 mM in DMSO. Mother solution of enzyme in buffer A (Mouse sEH at 6 μg/mL and Human sEH at 5 μg/mL). Inhibitor dissolved in DMSO at the appropriate concentration. In a black 96 well plate, fill all the wells with 150 μL of buffer A. Add 2 μL of DMSO in well A2 and A3, and then add 2 μL of inhibitor solution in A1 and A4 through A12. Add 150 μL of buffer A in row A, then mix several time and transfer 150 μL to row B. Repeat this operation up to row H. The 150 μL removed from row H is discarded. Add 20 μL of buffer A in column 1 and 2, then add 20 μL of enzyme solution to column 3 to 12. Incubate the plate for 5 minutes in the plate reader at 30° C. During incubation prepare the working solution of substrate by mixing 3.68 mL of buffer A (4×0.920 mL) with 266 μL (2×133 μL) of substrate solution). At t=0, add 30 μL of working substrate solution with multi-channel pipette labeled “Briggs 303” and start the reading ([S]final: 5 μM). Read with ex: 330 nm (20 nm) and em: 465 nm (20 nm) every 30 second for 10 minutes. The velocities are used to analyze and calculate the IC50s. Tables 1-7 above provide the percent inhibition of the enzyme when tested at the concentration recited therein.

CC(C)(C)OC(=O)N1CCC(NC(=O)Nc2ccc(Oc3ccccc3)cc2)CC1 [Compound 7-9, tert-butyl 4-(3-(4-phenoxyphenyl)ureido)-piperidine-1-carboxylate]
% inh. (Inhibition Conc. 50 nM): 92%

CCCOc1ccc(NC(=O)NC2CCN(C(=O)OC(C)(C)C)CC2)cc1 [Compound 7-10, tert-butyl 4-(3-(4-propoxyphenyl)ureido)-piperidine-1-carboxylate]
% inh. (Inhibition Conc. 50 nM): 80%

O=C(NC1CCN(C(=O)CCO)CC1)NC12CC3CC(CC(C3)C1)C2 [Compound 7-59, 1-adamantyl-3-(1-(3-hydroxypropanoyl)piperidin-4-yl)urea]
% inh. (Inhibition Conc. 200 nM): 86%

CC(=O)N1CCC(NC(=O)NC23CC4CC(C2)C(=O)C(C4)C3)CC1 [Compound 3-9, 1-(1-acetylpiperidin-4-yl)-3-(4-oxoadamantyl)urea]
% inh. (Inhibition Conc. 200 nM): 42%

O=C(NC1CCN(S(=O)(=O)c2ccc(Cl)c(Cl)c2)CC1)NC12CC3CC(CC(C3)C1)C2 [Compound 7-37]
% inh. (Inhibition Conc. 50 nM): 100%

CC(C)(C)OC(=O)N1CCC(NC(=O)Nc2ccc(C(F)(F)F)cc2)CC1 [Compound 7-47, tert-butyl 4-(3-(4-(trifluoromethyl)phenyl)ureido)piperidine-1-carboxylate]
% inh. (Inhibition Conc. 50 nM): 100%

O=C(Nc1ccc(C(F)(F)F)cc1)NC1CCN(c2ccccc2F)CC1 [Compound 2-13, 1-(1-(2-fluorophenyl)piperidin-4-yl)-3-(4-(trifluoromethyl)phenyl)urea]
% inh. (Inhibition Conc. 2000 nM): 18%

CC(=O)N1CCC(NC(=O)NC2CCC(C(C)(C)C)CC2)CC1 (stereo not drawn) [Compound 7-3, 1-(1-acetylpiperidin-4-yl)-3-(4-tert-butylcyclohexyl)urea]
% inh. (Inhibition Conc. 500 nM): 86%

CC(C)(C)OC(=O)N1CCC(NC(=O)Nc2ccc3ncccc3c2)CC1 [Compound 6-1, tert-butyl 4-(3-quinolin-6-yl-ureido)piperidine-1-carboxylate]
% inh. (Inhibition Conc. 50 nM): 86%

COC(=O)c1ccc(NC(=O)NC2CCN(C(C)=O)CC2)cc1 [Compound 7-69, methyl 4-(3-(1-acetylpiperidin-4-yl)ureido)benzoate]
% inh. (Inhibition Conc. 2000 nM): 69%

CC(=O)N1CCC(NC(=O)NC2CCN(C(=O)C(C)(C)C)CC2)CC1 [Compound 8-6, 1-(1-acetylpiperidin-4-yl)-3-(1-pivaloylpiperidin-4-yl)urea]
% inh. (Inhibition Conc. 2000 nM): 69%

CC(=O)N1CCC(NC(=O)NCC2CCOCC2)CC1 [Compound 1-4, 1-(1-acetylpiperidin-4-yl)-3-((tetrahydro-2H-pyran-4-yl)methyl)urea]
% inh. (Inhibition Conc. 2000 nM): 80%

O=C(NC1CCN(C(=O)c2ccc(Cl)cc2)CC1)NC12CC3CC(CC(C3)C1)C2 [Compound 7-46, 1-(1-(4-chlorobenzoyl)piperidin-4-yl)-3-adamantylurea]
% inh. (Inhibition Conc. 50 nM): 96%

NC(=O)c1cccnc1N1CCC(NC(=O)Nc2ccc(C(F)(F)F)cc2)CC1 [Compound 2-6, 2-(4-(3-(4-(trifluoro-methyl)phenyl)ureido)-piperidin-1-yl)nicotinamide]
% inh. (Inhibition Conc. 50 nM): 60%

CC(C)(C)S(=O)(=O)N1CCC(NC(=O)Nc2ccc(OC(F)(F)F)cc2)CC1 [Compound 7-77, 1-(1-(tert-butylsulfonyl)piperidin-4-yl)-3-(4-(trifluoromethoxy)phenyl)urea]
% inh. (Inhibition Conc. 200 nM): 99%

NS(=O)(=O)c1cccc(C(=O)N2CCC(NC(=O)Nc3ccc(C(F)(F)F)cc3)CC2)c1 [Compound 4-6, 3-(4-(3-(4-(trifluoromethyl)phenyl)ureido)piperidine-1-carbonyl)benzene-sulfonamide]
% inh. (Inhibition Conc. 50 nM): 99%

O=C(NC1CCN(S(=O)(=O)c2ccc(C(=O)O)cc2)CC1)NC12CC3CC(CC(C3)C1)C2 [Compound 7-45, 4-(4-(3-adamantylureido)piperidin-1-ylsulfonyl)benzoic acid]
% inh. (Inhibition Conc. 50 nM): 92%

O=C(Nc1ccc(C(F)(F)F)cc1)NC1CCN(C(=O)Nc2ccc(C(F)(F)F)cc2)CC1 [Compound 7-16, N-(4-(trifluoromethyl)phenyl)-4-(3-(4-(trifluoro-methyl)phenyl)ureido)-piperidine-1-carboxamide]
% inh. (Inhibition Conc. 50 nM): 98%

CC(C)(C)OC(=O)N1CCC(NC(=O)Nc2ccc3c(c2)CCC3)CC1 [Compound 6-5, tert-butyl 4-(3-(2,3-dihydro-1H-inden-5-yl)ureido)-piperidine-1-carboxylate]
% inh. (Inhibition Conc. 50 nM): 92%

CC(C)(C)CC(=O)N1CCC(NC(=O)NC23CC4CC(CC(C4)C2)C3)CC1 [Compound 7-72, 1-adamantyl-3-(1-(3,3-dimethylbutanoyl)piperidin-4-yl)urea]
% inh. (Inhibition Conc. 200 nM): 96%

CC(C)(C)C(=O)N1CCC(NC(=O)Nc2ccc(OC(F)(F)F)cc2)CC1 [Compound 7-19, 1-(1-pivaloylpiperidin-4-yl)-3-(4-(trifluoro-methoxy)phenyl)urea]
% inh. (Inhibition Conc. 50 nM): 97%

CC(=O)N1CCC(NC(=O)Nc2ccc(N3CCOCC3)cc2)CC1 [Compound 7-87, 1-(1-acetylpiperidin-4-yl)-3-(4-morpholinophenyl)urea]
% inh. (Inhibition Conc. 2000 nM): 0%

CC(=O)N1CCC(NC(=O)NC23CC4CC(C2)C(F)(F)C(C4)C3)CC1 [Compound 3-10, 1-(1-acetylpiperidin-4-yl)-3-(4,4-difluoroadamantyl)urea]
% inh. (Inhibition Conc. 200 nM): 76%

O=C(NC1CCN(C(=O)N2CCOCC2)CC1)NC12CC3CC(CC(C3)C1)C2 [Compound 7-82, 1-adamantyl-3-(1-(morpholine-4-carbonyl)piperidin-4-yl)urea]
% inh. (Inhibition Conc. 200 nM): 95%

CC(C)(C)OC(=O)N1CCC(NC(=O)Nc2ccc3cc[nH]c3c2)CC1 [Compound 6-2, tert-butyl 4-(3-1H-indol-6-yl-ureido)piperidine-1-carboxylate]
% inh. (Inhibition Conc. 500 nM): 87%

O=C(NC1CCN(c2ccncc2)CC1)NC12CC3CC(CC(C3)C1)C2 [Compound 2-4, 1-(1-adamantyl)-3-(1-(pyridin-4-yl)piperidin-4-yl)urea]
% inh. (Inhibition Conc. 5000 nM): 92%

NS(=O)(=O)c1ccc(C(=O)N2CCC(NC(=O)Nc3ccc(OC(F)(F)F)cc3)CC2)cc1 [Compound 4-2, 4-(4-(3-(4-(trifluoromethoxy)-phenyl)ureido)-piperidine-1-carbonyl)benzenesulfonamide]
% inh. (Inhibition Conc. 50 nM): 98%

CNS(=O)(=O)c1cccc(C(=O)N2CCC(NC(=O)NC34CC5CC(CC(C5)C3)C4)CC2)c1 [Compound 4-5, 3-(4-(3-(1-adamantyl)ureido)-piperidine-1-carbonyl)-N-methylbenzene-sulfonamide]
% inh. (Inhibition Conc. 50 nM): 99%

CC(=O)N1CCC(NC(=O)Nc2ccc(C(=O)O)cc2)CC1 [Compound 7-53, 4-(3-(1-acetylpiperidin-4-yl)ureido)benzoic acid]
% inh. (Inhibition Conc. 2000 nM): 17%

O=C(Nc1ccc(OC(F)(F)F)cc1)NC1CCN(c2ccccc2)CC1 [Compound 2-9, 1-(1-phenylpiperidin-4-yl)-3-(4-(trifluoromethoxy)phenyl)urea]
% inh. (Inhibition Conc. 2000 nM): 99%

CC(=O)N1CCC(NC(=O)NC23CCC(C)(CC2)CC3)CC1 [Compound 7-58, 1-(1-acetylpiperidin-4-yl)-3-(4-methylbicyclo[2.2.2]octan-1-yl)urea]
% inh. (Inhibition Conc. 200 nM): 84%

CC(=O)N1CCC(NC(=O)NC2CC3CCC2C3)CC1 (stereo not drawn) [Compound 7-7, 1-(1-acetylpiperidin-4-yl)-3-(bicyclo[2.2.1]heptan-2-yl)urea]
% inh. (Inhibition Conc. 50 nM): 88%

CC(C)(C)OC(=O)N1CCC(NC(=O)Nc2ccc(S(=O)(=O)N3CCOCC3)cc2)CC1 [Compound 5-1, tert-butyl 4-(3-(4-(morpholinosulfonyl)-phenyl)ureido)-piperidine-1-carboxylate]
% inh. (Inhibition Conc. 50 nM): 80%

CC(=O)N1CCC(NC(=O)NC23CC4CC(C2)C(O)C(C4)C3)CC1 (single isomer, unassigned) [Compound 3-7]
% inh. (Inhibition Conc. 5000 nM): 81%

CC(=O)N1CCC(NC(=O)NC2CCN(C)CC2)CC1 [Compound 8-3, 1-(1-acetylpiperidin-4-yl)-3-(1-methylpiperidin-4-yl)urea]
% inh. (Inhibition Conc. 2000 nM): 0%

CC(=O)N1CCC(NC(=O)Nc2ccc(S(=O)(=O)N3CCOCC3)cc2)CC1 [Compound 5-2, 1-(1-acetylpiperidin-4-yl)-3-(4-(morpholinosulfonyl)phenyl)urea]
% inh. (Inhibition Conc. 500 nM): 90%

O=C(NC1CCN(S(=O)(=O)c2ccc(Cl)cc2)CC1)NC12CC3CC(CC(C3)C1)C2 [Compound 7-27]
% inh. (Inhibition Conc. 50 nM): 95%

O=C(NC1CCN(S(=O)(=O)Cc2ccccc2)CC1)NC12CC3CC(CC(C3)C1)C2 [Compound 7-29, 1-(1-(benzylsulfonyl)piperidin-4-yl)-3-adamantylurea]
% inh. (Inhibition Conc. 50 nM): 93%

NS(=O)(=O)c1cccc(C(=O)N2CCC(NC(=O)NC34CC5CC(CC(C5)C3)C4)CC2)c1 [Compound 4-4, 3-(4-(3-(1-adamantyl)ureido)-piperidine-1-carbonyl)benzene-sulfonamide]
% inh. (Inhibition Conc. 50 nM): 93%

From US20080227780A1, “SOLUBLE EPOXIDE HYDROLASE INHIBITORS” (Arete Therapeutics, Inc., priority 2007, published 2008)
